Measurements from US20080033026A1, “Antimicrobial compositions, methods and systems” (priority 2006, published 2008).

How the values were obtained:
[1] = test system: Candida albicans (ATCC 10231); assay: Time-kill determination; assay type: cell-based
Experimental: (§1) The assessment of efficacy of 9-decenoic acid against a spectrum of microorganisms was determined using the American Society for Testing and Materials (ASTM) procedure entitled “Standard Test Method for the Assessment of Microbiocidal Activity of Test Materials Using a Time-Kill Procedure,” October 1998. This procedure incorporates the recommendations described in the “Manual of Clinical Microbiology,” 5th ed., edited by A. B. Balows et al., ASM, Washington, and is directed by the Federal Register, June 1994.
(§2) Challenge organisms were prepared as follows. Cultures of the following organisms were obtained: Staphylococcus aureus (ATCC 6538), Pseudomonas aeruginosa (ATCC 15442), Staphylococcus epidermidis (ATCC 12228), Klebsiella pneumoniae (ATCC 4352), Escherichia coli 0157:H7 (ATCC 43895) and Candida albicans (ATCC 10231). The stock cultures were transferred to sterile tubes and sterile tryptic soy broth (TSB) was added to the cultures. The mixture was incubated for 18-24 hours at 37° C. (±2° C.). A portion of this culture was then transferred onto TSA plates and incubated for 18-24 hours at 37° C. (±2° C.). The plates were removed from incubation and the bacterial growth was washed from the agar surface using Butterfield's Phosphate Buffered Dilution Water (PBDW).
(§3) The bacterial suspension was adjusted to contain approximately 10^8 Colony Forming Units (CFU) per ml with PBDW. The concentration was adjusted to an optical density (OD) of 0.4-0.5 (versus a PBDW blank) at 620 nm in a UV-Vis spectrophotometer, and this optical density gave approximately 10^8 colony forming units per milliliter (cfu/ml). The standardized suspension was stored under appropriate conditions until it was used as the challenge inoculum.
(§4) Concentrated 9-decenoic acid (97%) was diluted in filter sterilized isopropanol to yield a 25,000 ppm stock solution. Subsequent dilutions to the 9-decenoic acid stock solutions were made with sterile Deionized Water (DI) to achieve concentrations of 0.1%, 0.05%, 0.01% and 0.001%. The pH was determined for each dilution; pH values ranged from 4.4-4.1. Additionally, 9-decenoic acid stock solution was adjusted to pH 7 with 1 N NaOH and serially diluted with sterile DI to achieve concentrations of 1%, 0.5%, 0.2%, 0.1%, 0.05% and 0.0025%. In addition, 9-decenoic acid stock solution was combined with Triclosan™ (obtained from Ciba Specialty Chemical Corporation, under the tradename Irgasan DP 300™) in various ratios, as indicated in Table 8. The pH of the combined solution was 7.
(§5) Compliant with the ASTM procedure cited, for each challenge microorganism a 9.9 ml aliquot of the prepared 9-decenoic acid suspension was added to a sterile tube. A 0.1 ml aliquot of the standardized inoculum was added to the 9-decenoic acid solution representing the start of the test exposure. The inoculated 9-decenoic acid solution was immediately mixed thoroughly. The inoculated suspension was held at room temperature for 0.5, 2, 5, 7 and 10-minute exposure times for tests run at pH level of approximately 4. The pH 7 tests were held at room temperature for 0.5 and 2 minutes.
(§6) At each exposure sample time, a 1.0 ml aliquot of the inoculated 9-decenoic acid suspension was transferred to 9.0 ml of D/E Neutralizing Broth. Additional ten-fold serial dilutions were made in PBDW and plated in duplicate on TSA. All plates were incubated for 48 hours at 37° C. (±2° C.) and visually examined for growth. The plates were enumerated, recorded and log kill determined for each time point.
(§7) The following study controls were conducted: culture purity, neutralizer sterility, initial suspension population, test population, neutralization verification and a negative control using isopropanol. Culture purity was verified by performing a streak plate for isolated colonies of each culture used. All cultures were determined to be pure based on consistent colony morphology typical for the test organism. The neutralizer sterility was confirmed by no growth in an incubated sample. […]

[2] = test system: Staphylococcus epidermidis (ATCC 12228); assay: Time-kill determination; assay type: cell-based
Experimental: as §1, §2, §3, §4, §5, §6, §7

[3] = 0.01% 9-decenoic acid, pH 4.4, exposure 0.5 min
[4] = 0.01% 9-decenoic acid, pH 4.4, exposure 2 min
[5] = 0.01% 9-decenoic acid, pH 4.4, exposure 5 min
[6] = 0.01% 9-decenoic acid, pH 4.4, exposure 7 min
[7] = 0.01% 9-decenoic acid, pH 4.4, exposure 10 min
[8] = 0.05% 9-decenoic acid, pH 4.1, exposure 0.5 min
[9] = 0.05% 9-decenoic acid, pH 4.1, exposure 2 min
[10] = 0.05% 9-decenoic acid, pH 4.1, exposure 5 min
[11] = 0.05% 9-decenoic acid, pH 4.1, exposure 7 min
[12] = 0.05% 9-decenoic acid, pH 4.1, exposure 10 min
[13] = 0.1% 9-decenoic acid, pH 4.1, exposure 0.5 min
[14] = 0.1% 9-decenoic acid, pH 4.1, exposure 2 min
[15] = 0.1% 9-decenoic acid, pH 4.1, exposure 5 min
[16] = 0.1% 9-decenoic acid, pH 4.1, exposure 7 min
[17] = 0.1% 9-decenoic acid, pH 4.1, exposure 10 min

Measured: Log reduction

C=CCCCCCCCC(=O)O [9-decenoic acid]
>6.7 log: [1]; [5] | [1]; [6] | [1]; [7] | [1]; [8] | [1]; [9] | [1]; [10] | [1]; [11] | [1]; [12] | [1]; [13] | [1]; [14] | [1]; [15] | [1]; [16] | [1]; [17]
2.9 log: [1]; [4]
>5.7 log: [2]; [3] | [2]; [4] | [2]; [5] | [2]; [6] | [2]; [7] | [2]; [8] | [2]; [9] | [2]; [10] | [2]; [11] | [2]; [12] | [2]; [13] | [2]; [14] | [2]; [15] | [2]; [16] | [2]; [17]
1.0 log: [1]; [3]
